According to article PMC8575619, “Cytotoxic and Antifungal Amides Derived from Ferulic Acid: Molecular Docking and Mechanism of Action” (BioMed Research International, 2021):
≈ marks a conversion by molar mass, not a printed value. Where “and” joins values, the source holds several entries; their conditions need not be identical. Identical values can stand only once. Like-named read-outs stand apart in the source and are kept apart here.

Assays:
Candida krusei CBS 573 [1] = assay: MIC by broth microdilution; type: cell-based; details: Pichia kudriavzevii, CBS573, 24 h, N.A.: no activity, read-out: MIC C. krusei CBS 573
Experimental: (§1) Antifungal activity evaluations were performed using references strains of Candida spp., obtained from the Centraalbureau voor Schimmelcultures (CBS, Ultrecht, Netherlands): Candida albicans CBS 562, Candida tropicalis CBS 94, and Candida krusei CBS 573. Nystatin, Tween 80%, DMSO, caspofungin diacetate, and ergosterol were obtained from Sigma-Aldrich® (St. Louis, MO, EUA) and sorbitol (D-sorbitol anhydrous) from INLAB® (São Paulo, Brazil). All assays were performed in triplicate in three independent experiments. The culture medium used for maintenance of the microorganisms was Agar Sabouraud Dextrose (ASD). Inoculants were adjusted to a final concentration of 2.5 × 10^3 CFU/mL (Clinical and Laboratory Standards Institute, 2002). […]
(§2) MIC was determined by the microdilution technique, as previously described by the adapted Clinical and Laboratory Standards Institute (CLSI, 2002) method. The compounds were subjected to the microdilution technique in 96-well plates, with U bottom. The samples were dissolved with DMSO and sterile distilled water (up to 1.0 mL). Through serial dilutions, concentrations of the evaluated compounds ranging from 1000 μg/mL to 7.8 μg/mL. The culture sterility medium, the evaluated substances, and the microbial growth were carried out in parallel. The plates were closed and subjected to a temperature of 35 ± 2°C for 24 h. 1% TTC (2,3,5-triphenyl tetrazolium chloride, Sigma-Aldrich®, St. Louis, MO, EUA) was added to each well to confirm the presence of viable microorganisms. MIC was defined as the lowest concentration of the test substance that inhibits visible microbial growth.

[2] = tested on: Candida tropicalis CBS 94; assay: MIC by broth microdilution; type: cell-based; details: CBS94, 24 h, N.A.: no activity, read-out: MIC C. tropicalis CBS 94
Experimental: as §1, §2

Candida albicans CBS 562 [3] = assay: MIC by broth microdilution; type: cell-based; details: Candida albicans, CBS562, 24 h, N.A.: no activity, read-out: MIC C. albicans CBS 562
Experimental: as §1, §2

[4] = tested on: Candida strains (Candida albicans, C. tropicalis, and C. krusei); assay: Antifungal evaluation (MIC/MFC), statements for all Candida strains; type: cell-based, Candida spp.; details: Candida strains; read-out: bioactivity category by MIC
Experimental: The antifungal activity (Table 2) of the ten amides was assessed via the minimum inhibitory concentration (MIC) which was determined using the microdilution methods against three species of Candida strains (Candida albicans, C. tropicalis, and C. krusei).
as §1, §2
(§3) The minimum fungicide concentration (MFC) of the compounds was obtained after the interpretation of the MIC. Three (3) aliquots of 30 μL of supernatant were removed from the wells (where complete inhibition of fungal growth was analyzed) and placed in Petri dishes containing 15 mL of agar Sabouraud dextrose. The plates were incubated at 35 ± 2°C for 24 h for visual counting of colony forming units.

Candida krusei CBS 573 [5] = assay: Minimum fungicide concentration (MFC); type: cell-based
Experimental: as §1
as §3, with “units. To determine whether the compounds had fungistatic (MFC/MIC ≥ 4) or fungicidal (MFC/MIC < 4) activity, the MFC/MIC ratio was calculated.” for “units.”

[6] = tested on: Candida tropicalis CBS 94; assay: Minimum fungicide concentration (MFC); type: cell-based
Experimental: as §1
as §3, with “units. To determine whether the compounds had fungistatic (MFC/MIC ≥ 4) or fungicidal (MFC/MIC < 4) activity, the MFC/MIC ratio was calculated.” for “units.”

Candida albicans CBS 562 [7] = assay: Minimum fungicide concentration (MFC); type: cell-based
Experimental: as §1
as §3, with “units. To determine whether the compounds had fungistatic (MFC/MIC ≥ 4) or fungicidal (MFC/MIC < 4) activity, the MFC/MIC ratio was calculated.” for “units.”

C. albicans CBS 562 = assay: Sorbitol assay (cell wall mechanism), microdilution; type: cell-based, Candida albicans; details: Candida albicans, CBS562, C. albicans CBS 562
Experimental: (1) Sorbitol Assay. The microdilution technique was performed in the presence of sorbitol (D-sorbitol, anhydrous) (INLAB laboratory), to determine the mode of action of the compounds on the cell wall of C. albicans CBS 562. For this test, the inoculum was prepared with sorbitol to a final concentration of 0.8 M. The plates were incubated at 35 ± 2°C, and readings were taken 24 h and 48 h after incubation. Caspofungin was used as positive control at an initial concentration of 5 mg/mL [68–70].

HL-60 = assay: Cytotoxicity assay, alamar blue test; type: cell-based, human; details: Homo sapiens, HL-60, 72 h, value (95% confidence interval), read-out: IC50 HL60
Experimental: (§4) HepG2 cells (human hepatocellular carcinoma), HCT116 (human colon carcinoma), HL-60 (human promyelocytic leukemia), and MRC5 (human lung fibroblast) obtained from the ATCC (Manassas, VA, USA) were used. Cells were cultured in cell culture bottles (75 cm 3, 250 mL volume), and media used were RPMI 1640 and supplemented with 10% fetal bovine serum. Cells were maintained in incubators with 5% CO2 atmosphere at 37°C. Cellular growth was monitored daily with the use of an inversion microscope. The medium was changed whenever cell growth reached the necessary confluence for nutrient renewal. For the maintenance of adhered cells, trypsin (0.25%) was used for the cells to detach from the walls of the bottles.
(§5) To assess the cytotoxicity of the substances, the alamar blue test was performed after 72 h of exposure with the test substances. Alamar blue, known as resazurin [62], is a fluorescent/colorimetric indicator with redox properties. The reduction in alamar blue reflects cell proliferation. This was initially used to indicate cell growth and/or viability in monitoring lymphocyte proliferation and currently has several applications. Initially, cells were plated in 96-well plates (100 μL/well of a solution of 0.3 × 10^6 cells/mL for cells in suspension and 0.7 × 10^5 cells/mL for adhered cells). After 24 h of incubation, the test substances dissolved in DMSO were added to each well and incubated for 72 h. Doxorubicin was used as a positive control. The negative control received the same amount of DMSO. Four hours before the end of the incubation period, 20 μL of the stock solution (0.312 mg/mL) of alamar blue (resazurin) was added to each well. Absorbances were measured at wavelengths of 570 nm (reduced) and 600 nm (oxidized) using a plate reader.

HepG2 cells = assay: Cytotoxicity assay, alamar blue test; type: cell-based, human; details: Homo sapiens, HepG2, 72 h, value (95% confidence interval)
Experimental: as §4, §5

HCT116 = assay: Cytotoxicity assay, alamar blue test; type: cell-based, human; details: Homo sapiens, HCT-116, 72 h, value (95% confidence interval)
Experimental: as §4, §5

MRC5 = assay: Cytotoxicity assay, alamar blue test (healthy cell line); type: cell-based, human; details: Homo sapiens, MRC5, 72 h, value (95% confidence interval)
Experimental: as §4, §5

C. albicans = assay: Ergosterol test (plasma membrane mechanism), microdilution; type: cell-based, Candida albicans; details: Candida albicans
Experimental: (2) Ergosterol Test. The test of the compounds was performed using the microdilution technique, as previously described, in the presence of exogenous ergosterol at 400 μg/mL. Nystatin was used as positive control. The plates were incubated at 35 ± 2°C, and readings were taken at 24 and 48 h.

[8] = ≥ 4 fungistatic or <4 fungicide

MIC (Candida krusei CBS 573 [1]): 62.5 µg/mL (≈ 191 µM)
MIC [2]: 500 µg/mL (≈ 1530 µM)
MIC (Candida albicans CBS 562 [3]): 62.5 µg/mL and 190 µM
MIC [4]: 26 to 125 µg/mL (≈ 79.4 to 382 µM)
MIC (C. albicans CBS 562; absence of sorbitol, read-out: MIC Without sorbitol): 15.6 µg/mL (≈ 47.7 µM)
MIC (C. albicans CBS 562; sorbitol 0.8 M, read-out: MIC With sorbitol): > 1000 µg/mL
melting point: 172 to 175 °C
MIC (C. albicans; absence of ergosterol, read-out: MIC Without ergosterol): 62.2 µg/mL (≈ 190 µM)
MIC (C. albicans; exogenous ergosterol at 400 μg/mL, read-out: MIC With ergosterol): 62.2 µg/mL (≈ 190 µM)
Structure (SMILES): COc1cc(C=CC(=O)NCc2ccc3c(c2)OCO3)ccc1O [Compound 11]
MFC (Candida krusei CBS 573 [5]; Pichia kudriavzevii, CBS573, N.A.: no activity, read-out: MFC C. krusei CBS 573): 62.5 µg/mL and 190 µM
MIC/MFC reason C. krusei CBS 573 (Candida krusei CBS 573 [5]; [8]): 1
MFC ([6]; Candida tropicalis, CBS94, N.A.: no activity, read-out: MFC C. tropicalis CBS 94): 500 µg/mL and 1520 µM
MIC/MFC reason C. tropicalis CBS 94 [6, 8]: 1
MFC (Candida albicans CBS 562 [7]; Candida albicans, CBS562, N.A.: no activity, read-out: MFC C. albicans CBS 562): 125 µg/mL and 380 µM
MIC/MFC reason C. albicans CBS 562 (Candida albicans CBS 562 [7]; [8]): 2
IC50 (HL-60): 18.8 µg/mL and 57.4 µM
IC50 (HepG2 cells): > 25 µg/mL and > 76.4 µM
IC50 (HCT116): > 25 µg/mL and > 76.4 µM
IC50 (MRC5): > 25 µg/mL and > 76.4 µM
